# Where a SMILES comes first, the peptide text is derived from it. Where no end group is shown, it is not given here.
# Assays:
# [1] = biological target: T1, tandem SH3 domains of human NOXO1 (Homo sapiens, UniProt Q8NFA2); experiment: ITC, binding to human NOXO1 tandem SH3 domains; conditions: 18°C; for Kd: pH 7.4, titrated against tandem SH3 domains
# T1 construct: was titrated against the tandem SH3 domains as well as against the individual SH3A and SH3B domains; GST (N, cleaved yes); made in house; host or cells: Escherichia coli BL21 STAR
# T1 sequence (Q8NFA2 157-290 isoform Q8NFA2-4): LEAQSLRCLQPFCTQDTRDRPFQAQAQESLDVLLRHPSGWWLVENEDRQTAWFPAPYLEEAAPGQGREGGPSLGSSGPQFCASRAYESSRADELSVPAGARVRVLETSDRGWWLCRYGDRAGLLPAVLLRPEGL
# Procedure: (§1) Complex formation between NOXO1, NOXA1 and p22^phox fragments or peptides were measured by isothermal titration calorimetry using a MicroCal VP-ITC calorimeter (MicroCal Inc., Northampton, USA). All proteins were dialysed against ITC buffer (150 mM NaCl, 1 mM DTT and 50 mM HEPES, pH 7.4) and performed at 18°C. All peptides were dissolved in ITC buffer. Typically, 20–40 µM of protein in the cell was titrated by stepwise injections of a total of 200–300 µM of the ligand. Heats of dilution were determined by titrating protein or peptide into ITC buffer and subtracted from the raw ITC data prior to analysis with the software, Origin version 7.0, assuming a single-site binding model. Data were averaged over three to five experiments.
# human NOXA1 SH3 = biological target: T2, human NOXA1 SH3 (Homo sapiens, UniProt Q86UR1); experiment: ITC, binding to human NOXA1 SH3; conditions: 18°C, 150 mM NaCl, 1 mM DTT, 50 mM HEPES, pH 7.4, peptide in syringe, human NOXA1 SH3 in cell, averaged over three to five experiments, read-out: K (Kd)
# T2 construct: GST (N, cleaved yes); made in house; host or cells: Escherichia coli BL21 STAR
# T2 sequence (Q86UR1 399-458 limits assumed): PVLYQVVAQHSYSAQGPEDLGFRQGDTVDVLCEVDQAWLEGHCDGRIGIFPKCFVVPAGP
# Procedure: as §1
# human NOX1 = conditions: ref [32]–[34]; cited from earlier work
# [2] = system: mouse proteins (NOX1 system); conditions: ref [32]–[34]; cited from earlier work
# [3] = system: interaction between NOXO1 and p22^phox; conditions: cited from earlier work
# Text: In this study we provide evidence that the assembly of the NOX1 oxidase complex can be regulated through reversible protein-protein interactions. […] However, the inhibitory effect of the C-terminal tail is less pronounced in NOXO1 than in the homologous p47^phox subunit of the phagocytic oxidase, and may explain why the NOX1 system is capable of producing low levels of superoxide, in a constitutive ...
molecule,measurement,setting,value
CC[C@H](C)[C@H](NC(=O)[C@H](C)NC(=O)CNC(=O)[C@@H]1CCCN1C(=O)[C@H](CO)NC(=O)[C@@H]1CCCN1C(=O)[C@H](CCCNC(=N)N)NC(=O)[C@@H](NC(=O)[C@@H]1CCCN1C(=O)[C@@H](NC(=O)[C@@H](NC(=O)[C@@H]1CCCN1C(=O)[C@@H]1CCCN1C(=O)[C@@H]1CCCN1C(=O)[C@H](C)NC(=O)[C@@H](N)[C@@H](C)O)[C@@H](C)O)C(C)C)[C@@H](C)O)C(=O)N[C@@H](CCC(N)=O)C(=O)N[C@@H](CO)C(=O)N[C@@H](CCCNC(=N)N)C(=O)N[C@@H](CS)C(=O)N[C@@H](CS)C(=O)N[C@H](C(=O)N[C@H](C(=O)N[C@H](C(=O)N[C@@H](CCCNC(=N)N)C(=O)N[C@@H](CCCNC(=N)N)C(=O)N[C@@H](C)C(=O)N[C@@H](CC(C)C)C(=O)N[C@@H](CCC(=O)O)C(=O)O)[C@@H](C)O)C(C)C)[C@@H](C)O [PeptideA] (H-TAPPPTVPTRPSPGAIQSRCCTVTRRALE-OH),Kd,[1],~50 µM
TAPPPTVPTRPS [PeptideA-short],Kd,[1],~50 µM
same,Kd,human NOXA1 SH3,> 70 µM
"ERRPRRQGRPRG [peptide corresponding to basic region, residues 347–359, of C-terminal tail of human NOXO1]",binding to the tandem SH3 domains (qualitative),"[1]; pH 7.4, data not shown",no binding was detected
CCCCCCCCCCCCCC(=O)O[C@@H]1[C@@H](C)[C@@]2(O)[C@@H](C=C(CO)C[C@]3(O)C(=O)C(C)=C[C@@H]23)[C@@H]2C(C)(C)[C@]12OC(C)=O [PMA],superoxide production by human NOX1,human NOX1,increased
same,superoxide production with the mouse proteins,[2],a similar increase could not be observed with the mouse proteins
CCCCC/C=C\C/C=C\C/C=C\C/C=C\CCCC(=O)O [arachidonic acid],effect on interaction between NOXO1 and p22^phox,[3],could increase the interaction between NOXO1 and p22^phox
